Legend:
Assay type in all cases: in vivo, mouse (D2.B10-Dmd^mdx/J)
[1] = test system: D2.B10 mice; assay: Muscle fibrosis by Sirius Red staining in D2.B10 mice; settings: for Reduction of fibrosis in DIA: T8; for Reduction of fibrosis in TA: T8, Givinostat 37.5 mg/kg, steroids 1 mg/kg, vs vehicle; for Effect on fibrosis in GAS: T16; for Efficacy on fibrosis in DIA: T16, Givinostat 37.5 mg/kg, prednisone
Excerpt: (§1) Tibialis anterior (TA), gastrocnemius (GAS), DIA, and heart were collected from mice maintained under isoflurane anesthesia and sacrificed by cervical dislocation. These muscles were collected from C57BL/10J wt and mdx (5 mice/group) at the end of treatments and from DBA/2J wt and D2.B10 mice (5 mice/group) at two different time points to be examined by a pathologist (for more details see Additional Table 1). Due to the results obtained by the functional tests, muscles from only some treatment groups were analyzed in both DMD models (see Additional Table 1). All the collected muscles were fixed in 10% buffered formalin solution (Bio-optica, Milan, Italy) at + 4 °C for at least 48 h. After fixation, muscular samples were transversely trimmed, caged, and paraffin embedded overnight with an Automated Vacuum Tissue Processor Floor (ETP, Histo-Line Laboratories) and included in paraffin blocks. Serial transverse cross-sections (4 μm thick) were cut with a microtome (Leica RM 2255), collected onto uncoated glass slides, and stained using a standard protocol for hematoxylin and eosin (Mayer hematoxylin & Aqueous G Eosin 1%, Bio-Optica) and Sirius Red staining (Direct Red 80, Sigma-Aldrich). For the image analysis and quantitation, hematoxylin and eosin- and Sirius Red-stained slides were examined with an Olympus BX51 light microscope. From each sample, 1 to 3 random microphotographs at the magnification of × 4 and × 10 (TA, GAS and heart) or × 20 (DIA) were collected using Image-Pro Plus system. The digital images were processed by a pathologist using ImageJ software (U.S. National Institutes of Health, Bethesda, MD, USA). To quantify CSA and centralized nuclei (%) on hematoxylin and eosin-stained sections, one hundred myofibers were manually measured for each muscle/mouse using a tablet pen (Wacom Intruos) and analyzed by the ImageJ software after a linear calibration of 150 μm. The fibrotic area, corresponding to the area stained in red, was compared to the total area of the tissue section, and the results were expressed as percentage fibrosis. The % of fibrosis of muscles in the different treatment groups was expressed by averaging the three values obtained from each muscle.

[2] = test system: D2.B10 mice; assay: Myofiber cross-sectional area (CSA) in D2.B10 mice; settings: for TA CSA / GAS CSA: D2.B10 mice, Givinostat 37.5 mg/kg
Excerpt: as §1
The deciles of the CSA of the animals treated with Givinostat at the different doses were plotted against the corresponding deciles of the vehicle-treated mice and a linear regression analysis was performed on natural [CSAtreated = b CSAcontrol + a] and log_transformed data [log(CSAtreated) = log(a) + b log(CSAcontrol)]. […] In case of untransformed data, this means that the effect of Givinostat treatment is additive and any decile of the CSAtreatment distribution may be derived from the control data summing up a constant quantity (S) to each fiber AREA of the control group (CSAtreated = CSAcontrol + S). In case of log_transformed data, the effect of Givinostat has to be considered as a multiplicative factor on any generic fiber of the muscle under evaluation, whose size, after the treatment, results K times larger in comparison to the control group value (CSAtreated […] = K × CSAcontrol, with K = 10^a). The S or K parameter values were then determined through an iterative estimation procedure, based on sum of squares (SSQ) minimization, directly comparing the CSA distribution observed in treated animals with that obtained summing up the S value or multiplying by K the CSA values of the control group.

[3] = test system: D2.B10 mice; assay: Centralized nuclei (%) in muscles of D2.B10 mice; settings: Givinostat 37.5 mg/kg; for Nuclear centralization in TA: prednisone (vehicle 21.2 ± 1.0); for Nuclear centralization in GAS: prednisone (vehicle 25.1 ± 1.5)
Excerpt: as §1

[4] = T8, prednisone 1 mg/kg (vehicle 600)
[5] = T8, prednisone 1 mg/kg (vehicle 1050)
[6] = T16, prednisone 1 mg/kg (vehicle 300)

SMILES	Reduction of fibrosis in DIA [1]	Reduction of fibrosis in TA [1]	Effect on fibrosis in GAS [1]	Efficacy on fibrosis in DIA [1]	TA CSA [2, 4] [μm^2]	GAS CSA [2, 5] [μm^2]	GAS CSA [2, 6] [μm^2]	TA CSA [2, 6] [μm^2]	Nuclear centralization in TA [3] [%]	Nuclear centralization in GAS [3] [%]	Effect of steroid on fibrosis, summary ([1]; 1 mg/kg i.p. weekly)	Reduction of fibrosis in GAS ([1]; T8, vs vehicle)	Effect of steroid on cross-sectional area and centralized nuclei ([2]; D2.B10 muscles, 1 mg/kg i.p. weekly)
CCN(CC)Cc1ccc2cc(COC(=O)Nc3ccc(C(=O)NO)cc3)ccc2c1 [Givinostat]	about 33%	about 22%	No significant effect	lost	300	600	450	300	19.8 ± 2.4	22.4 ± 2.1			
C[C@]12C=CC(=O)C=C1CC[C@@H]1[C@@H]2C(=O)C[C@@]2(C)[C@H]1CC[C@]2(O)C(=O)CO [prednisone]	~45%	about 22%	No significant effect	lost	300	600	300	300	22.0 ± 2.4	21.6 ± 1.7	significantly reduced fibrosis in TA, GAS, and DIA	about 26%	unable to affect cross-sectional area or the number of centralized nuclei
